“Also recorded” adds a separate entry of the source.
What was measured:
[1] = Animal body weight in psoriasis model, Example 1; assay type: in vivo, BALB/c mice; settings: for Statistical significance analysis of body weight: vs vehicle control group, t-test, DEX cream 70 mg external
Method: (§1) Female BALB/c mice (purchased from Shanghai SLACK Laboratory Animal Co., Ltd, administered at 6 weeks of age) were randomly divided into groups after adapting to the environment. Except for the normal control group, the rest of the animals received imiquimod ointment (5%) externally to induce the establishment of a psoriasis model. Specifically, the mice were shaved off same area of the back hair and applied with 62.5 mg of imiquimod ointment daily for seven consecutive days. Animals received different treatment programs, weighed daily, orally or externally applied with drugs once, and recorded with disease progression score.
(§2) Both the vehicle control group and the Nib1 treatment group received oral gavage of the same volume of drugs, formulated with 30% PEG300, and the Nib1 group was given a dose of 10 mg/kg. Dexamethasone ointment was used as a positive treatment drug and received 70 mg smear treatment once a day. The disease progression score is evaluated on a scale of 0-4 based on three indicators, rash, peeling, and thickening (0: no symptoms; 1: mild symptoms; 2: moderate symptoms; 3: significant symptoms; 4: very significant symptoms). At the end of the experiment, the animals were sacrificed, and pathological section analysis was performed on the skin samples of the back lesions.

[2] = Animal body weight in psoriasis model, Example 2 (external application); assay type: in vivo, BALB/c mice; settings: 70 mg external once a day for 7 days
Method: After adapting to the environment, female BALB/c mice were randomly divided into groups. Except for the normal control group, the rest received external treatment with imiquimod ointment (5%) to induce the establishment of a psoriasis model. Specifically, the mice were shaved off the same area (2×3 cm) of back hair and applied with 62.5 mg ointment daily for seven consecutive days. The animals received different treatments, weighed daily, received 70 mg smear treatment once, and recorded with disease progression score. The disease progression score is evaluated on a scale of 0-4 based on three indicators, rash, peeling, and thickening (0: no symptoms; 1: mild symptoms; 2: moderate symptoms; 3: significant symptoms; 4: very significant symptoms). At the end of the experiment, the animals were sacrificed, and pathological section analysis was performed on the skin samples of the back lesions.

psoriasis model [3] = assay: Clinical scoring (rash, peeling, thickening) in imiquimod-induced psoriasis model, Example 1; assay type: in vivo, BALB/c mice; settings: for statistical significance analysis of rash scores / statistical significance analysis of skin thickening scores / statistical significance analysis of total clinical scores / statistical significance analysis of peeling scores: vs vehicle control group, t-test, Nib1 10 mg/kg oral, DEX cream 70 mg external
Method: as §1, §2
The clinical scoring of three indicators including skin rash, peeling and thickening were recorded and shown as statistical average value and ±standard error by day.

[4] = J Neurol Neurosurg Psychiatry 1986;49:791-795; cited from earlier work
psoriasis model [5] = assay: Pathological section analysis and scoring of back lesion skin, Example 1; assay type: in vivo, BALB/c mice; settings: Nib1 10 mg/kg oral
Method: as §2
The pathological sections of animal skin were stained with eosin. Three samples were selected for each group.

[6] = Nib1 10 mg/kg oral once a day, vs model group

C[C@@H]1C[C@H]2[C@@H]3CCC4=CC(=O)C=C[C@]4(C)[C@@]3(F)[C@@H](O)C[C@]2(C)[C@@]1(O)C(=O)CO [DEX, Dexamethasone]
body weights of the animals ([1]; Example 1, 7 days, Nib1 10 mg/kg oral, dexamethasone ointment 70 mg topical, once a day): significantly reduced
Statistical significance analysis of body weight ([1]; day 1, Nib1 10 mg/kg oral): * (* p < 0.05)
Statistical significance analysis of body weight ([1]; day 4, Nib1 10 mg/kg oral): * (* p < 0.05)
Statistical significance analysis of body weight ([1]; day 5, Nib1 10 mg/kg oral): ** (** p < 0.01)
Statistical significance analysis of body weight ([1]; day 6, Nib1 10 mg/kg oral): **** (**** p < 0.0001)
Statistical significance analysis of body weight ([1]; day 7, Nib1 10 mg/kg oral): **** (**** p < 0.0001)
weight loss [2]: more than 25%
statistical significance analysis of rash scores (psoriasis model [3]; day 1): ** (** p < 0.01)
statistical significance analysis of skin thickening scores (psoriasis model [3]; day 1): **** (**** p < 0.0001)
statistical significance analysis of total clinical scores (psoriasis model [3]; day 1): **** (**** p < 0.0001)
statistical significance analysis of rash scores (psoriasis model [3]; day 2): **** (**** p < 0.0001)
statistical significance analysis of skin thickening scores (psoriasis model [3]; day 2): **** (**** p < 0.0001)
statistical significance analysis of total clinical scores (psoriasis model [3]; day 2): **** (**** p < 0.0001)
statistical significance analysis of peeling scores (psoriasis model [3]; day 3): **** (**** p < 0.0001)
statistical significance analysis of rash scores (psoriasis model [3]; day 3): **** (**** p < 0.0001)
statistical significance analysis of skin thickening scores (psoriasis model [3]; day 3): **** (**** p < 0.0001)
statistical significance analysis of total clinical scores (psoriasis model [3]; day 3): **** (**** p < 0.0001)
statistical significance analysis of peeling scores (psoriasis model [3]; day 4): **** (**** p < 0.0001)
statistical significance analysis of rash scores (psoriasis model [3]; day 4): **** (**** p < 0.0001)
statistical significance analysis of skin thickening scores (psoriasis model [3]; day 4): **** (**** p < 0.0001)
statistical significance analysis of total clinical scores (psoriasis model [3]; day 4): **** (**** p < 0.0001)
statistical significance analysis of peeling scores (psoriasis model [3]; day 5): **** (**** p < 0.0001)
statistical significance analysis of rash scores (psoriasis model [3]; day 5): **** (**** p < 0.0001)
statistical significance analysis of skin thickening scores (psoriasis model [3]; day 5): **** (**** p < 0.0001)
statistical significance analysis of total clinical scores (psoriasis model [3]; day 5): **** (**** p < 0.0001)
statistical significance analysis of peeling scores (psoriasis model [3]; day 6): **** (**** p < 0.0001)
statistical significance analysis of rash scores (psoriasis model [3]; day 6): **** (**** p < 0.0001)
statistical significance analysis of skin thickening scores (psoriasis model [3]; day 6): **** (**** p < 0.0001)
statistical significance analysis of total clinical scores (psoriasis model [3]; day 6): **** (**** p < 0.0001)
statistical significance analysis of peeling scores (psoriasis model [3]; day 7): *** (*** p < 0.001)
statistical significance analysis of rash scores (psoriasis model [3]; day 7): **** (**** p < 0.0001)
statistical significance analysis of skin thickening scores (psoriasis model [3]; day 7): **** (**** p < 0.0001)
statistical significance analysis of total clinical scores (psoriasis model [3]; day 7): **** (**** p < 0.0001)

O=c1[nH]c2ccccc2n1C1CCN(CCCC(c2ccc(F)cc2)c2ccc(F)cc2)CC1 [Nib1, Pimozide]
systemic risks on long-term use [4]: has not shown systemic risks
toxic and side effect (judged from body weight) ([1]; mouse, in vivo, po, 10 mg/kg): significantly less than that of dexamethasone
pathological section findings (epidermal hyperplasia, immune cell infiltration) (psoriasis model [5]; stained skin sections, 100x): improve epidermal hyperplasia and reduce immune cell infiltration
remission effect by pathological section score (psoriasis model [5]; scoring system of Table 2, p<0.01 vs vehicle control, one-way ANOVA): 32.5%
remission by area under the clinical total score curve (AUC) (psoriasis model [3]; Nib1 10 mg/kg oral once a day for 7 days, compared with the disease model group): 32.2%
total score of the three clinical indicators (psoriasis model [3]; Nib1 10 mg/kg oral once a day, vs disease model group, 10 mg/kg): significantly lower clinical symptoms than the disease model group; also recorded: significantly reduce the clinical symptoms of psoriasis
peeling clinical score (psoriasis model [3]; [6]): significantly reduce the peeling phenomenon
skin thickening clinical score (psoriasis model [3]; [6]): significantly reduced on the 4th, 5th, and 6th days
rash clinical score (psoriasis model [3]; Nib1 10 mg/kg oral once a day, vs model group, significantly different in the first three days): slightly reduced rash
statistical significance analysis of rash scores (psoriasis model [3]; day 1): **** (**** p < 0.0001)
statistical significance analysis of skin thickening scores (psoriasis model [3]; day 1): ** (** p < 0.01)
statistical significance analysis of total clinical scores (psoriasis model [3]; day 1): **** (**** p < 0.0001)
statistical significance analysis of rash scores (psoriasis model [3]; day 2): * (* p < 0.05)
statistical significance analysis of total clinical scores (psoriasis model [3]; day 2): ** (** p < 0.01)
statistical significance analysis of peeling scores (psoriasis model [3]; day 3): *** (*** p < 0.001)
statistical significance analysis of rash scores (psoriasis model [3]; day 3): ** (** p < 0.01)
statistical significance analysis of skin thickening scores (psoriasis model [3]; day 3): * (* p < 0.05)
statistical significance analysis of total clinical scores (psoriasis model [3]; day 3): **** (**** p < 0.0001)
statistical significance analysis of peeling scores (psoriasis model [3]; day 4): *** (*** p < 0.001)
statistical significance analysis of skin thickening scores (psoriasis model [3]; day 4): *** (*** p < 0.001)
statistical significance analysis of total clinical scores (psoriasis model [3]; day 4): **** (**** p < 0.0001)
statistical significance analysis of peeling scores (psoriasis model [3]; day 5): **** (**** p < 0.0001)
statistical significance analysis of skin thickening scores (psoriasis model [3]; day 5): *** (*** p < 0.001)
statistical significance analysis of total clinical scores (psoriasis model [3]; day 5): *** (*** p < 0.001)
statistical significance analysis of peeling scores (psoriasis model [3]; day 6): ** (** p < 0.01)
statistical significance analysis of skin thickening scores (psoriasis model [3]; day 6): ** (** p < 0.01)
statistical significance analysis of total clinical scores (psoriasis model [3]; day 6): ** (** p < 0.01)

From patent US20220204456A1, “COMPOUND FOR TREATING AUTOIMMUNE SKIN DISEASES CAUSED BY INFLAMMATION, AND USE THEREOF” (GenEros Biopharma Ltd., priority 2019, published 2022)
